Where “and” joins values, the source holds several entries; their conditions need not be identical. Equal values may be shown once. Entries after “also recorded” stand apart in the source; their conditions may differ. Marks after values point to notes of the source that are not given here.
Tests used:
male Wistar rats [1] = test: Biochemical analysis of serum of rats treated with multiple doses; settings: rat serum, gavage four times a day for 4 days, PQ diphosphate 2.44 mg/kg free base, Phe-Ala-PQ 9.00 mg/kg, mean
Method: (§1) The biochemical, hematological and histopathological analyses were carried out in male Wistar rats (weighing 200–250 g). They were housed in wire cages, five animals per cage, with free access to food and water. The study protocol was approved by The Research Ethics Committee of the School of Pharmaceutical Sciences, UNESP, Araraquara (process 06/2009). […] After treatment with the drugs, the animals were decapitated for collection of blood and samples of liver and kidneys (preserved in 10% formaldehyde).
(§2) In biochemical analysis, aspartate aminotransferase (AST), alanine aminotransferase (ALT), gamma-glutamyltransferase (GGT), bilirubin, creatinine and urea kits were purchased from LabTest Diagnostica SA (Lagoa Santa,Minas Gerais, Brazil). Alkaline phosphatase (ALP) was assayed by the conversion of p-nitrophenyl phosphate to p-nitrophenol in a kinetic reaction, measured with a spectrophotometer at 405 nm. To determine the level of methemoglobin in relation to oxyhemoglobin, we used the method described by Naoum and collaborators. The blood was hemolyzed and the hemoglobin stabilized in 60 mM phosphate buffer, pH 6.8. The levels of methemoglobin and oxyhemoglobin were determined by spectrophotometric absorption at 630 and 540 nm. The total and differential white blood cell (WBC) counts were performed using a Neubauer chamber and blood smears, respectively. The hematocrit was determined using conventional method by microcapillary centrifugation.

[2] = tested on: G6PD-deficient human red blood cells; test: In vitro hemolysis assay
Method: (§4) The hemolytic rate was calculated using 0.05% saponin as the positive control for hemolysis of human RBC, which was considered 100% [24], [25]. The diagnosis of G6PD deficiency was performed using a technique based on the principle that hemoglobin oxidized to methemoglobin, by the action of sodium nitrite, is catalyzed by an enzyme, in the presence of methylene blue [26]. […] All participants signed a written informed consent before blood collection. The consent was approved by the Ethics Committee of CEPEM.

male Wistar rats [3] = test: Histopathological evaluation of rat liver and kidney; settings: multiple doses; for Liver glycogen: PAS-positive cells (total), periportal region: compared to the control group; for Histopathological analysis of the kidney: hematoxylin/eosin
Method: as §1
The liver and kidney were removed from each rat to perform the histopathological evaluation. Tissue pieces were fixed in 10% formaldehyde and embedded in paraffin. Each organ was then cut into 4-µm thick sections and subjected to standard hematoxylin/eosin staining. Hepatic glycogen staining in sections was carried out using the standard periodic acid-Schiff (PAS) reaction, followed by hematoxylin counterstaining, and the periportal and centrilobular regions of the liver were analyzed according to Thoolen et al.. Five periportal regions and five centrilobular regions were photographed in each animal, for a total of 300 photographs, and these images were adjusted using Pixelmator software (2.2.1). Nuclear hepatocyte glycogen levels were classified as: A- PAS<50% of cells, B- PAS≥50% of cells and C- PAS-negative. Additionally, liver sections were examined for the occurrence of microvesicular fatty changes, as well as the kidney sections for inflammatory infiltration, reduction of Bowman's spaces and changes in renal tubules. Statistical analysis was performed in Graphpad Prism 5.0b. Data for each organ analysis were expressed qualitatively and quantitatively, and normal distribution was verified (D'Agostin and Person). t-tests and chi-square tests were performed, and non-parametric data were evaluated using the Mann-Whitney or Kruskal-Wallis test for pair wise comparisons of groups. The significance level was set at 5%.

[4] = tested on: human hepatoma cell line (HepG2); test: In vitro cytotoxicity, MTT assay, HepG2 cells; settings: for MDL50 (Mean±SD) HepG2: 24 h incubation
Method: (§3) The HepG2 (ATCC HB-8065) was originally received from the New University of Lisbon, Portugal, and BGM received as a gift from the Federal University of Minas Gerais and originally purchased from Rio de Janeiro Cell Bank (BCRJ 0049). When confluent, the cells were washed with RPMI culture medium, then trypsinized, distributed in a flat-bottom 96-well plate (5×10^3 cells/well), and incubated for 18 h at 37°C for cell adherence as described elsewhere. The compound (20 µL) was added to each well at various concentrations (1-1000 µg/mL) and the plate incubated for 24 h in a 5% CO2 atmosphere at 37°C. MTT [3-(4,5-dimethylthiazol-2-yl)-2,5-diphenyltetrazolium bromide] (5 mg/mL; 20 µL/well) was added to evaluate mitochondrial viability, and the plates were incubated again for 3 h, under the same culture conditions. The supernatant was carefully removed, and 100 µL of DMSO were added with mixing to dissolve the formazan crystals formed. The optical density was determined at 570 and 630 nm (background) (SpectraMax 340PC 384, Molecular Devices). Cell viability was expressed as the percentage of the control absorbance of the untreated cells after subtracting the appropriate background. The minimum lethal dose for 50% of the cells (MLD50) was determined as previously described.

[5] = previous study; cited from earlier work
[6] = tested on: monkey kidney cell line (BGM); test: In vitro cytotoxicity, MTT assay, BGM cells; settings: for MDL50 (Mean±SD) BGM: 24 h incubation
Method: as §3

male Wistar rats [7] = test: Hemogram of rats treated with multiple doses; settings: gavage four times a day for 4 days, PQ 2.44 mg/kg free base, Phe-Ala-PQ 9.00 mg/kg, mean (CI 95)
Method: as §1, §2

P. gallinaceum = test: Inhibition of P. gallinaceum sporogony in Aedes fluviatilis mosquitoes fed on infected, treated chickens; assay type: in vivo; settings: for Mean oocyts ±SD/ in times 4 h: chicken, mosquitoes fed 4 h after treatment; for Reduction in oocyst number, % / Sporogony inhibition, %: 4 h vs 0 h
Method: One-week-old chicks (Gallus gallus domesticus) previously inoculated with 10^6 RBC infected with P. gallinaceum, had their parasitemia monitoried daily, by examining Giemsa-stained thin blood smears; they were used to feed the mosquitoes when reaching 2.8 – 3.8%. The A. fluviatilis mosquitoes were kept for 24 h without sugar in their diet, to improve their ability to take the blood meal from chickens. For each compound the same infected chicken was offered twice to feed clean mosquitoes (30 female mosquitoes per group), before treatment, (group 0 h). Drug treatment was immediately performed by gavage and the treated chicken was offered again to blood-feed another group of mosquitoes (test group) 4 h after treatment of the chicken with the drug. […] In each experiment, another non-treated P. gallinaceum-infected chick was used twice (time 0 h and 4 h later) to feed clean mosquitoes, serving as an internal control.
Seven days after the blood meal, the mosquitoes were dissected and their midgut was removed under a stereomicroscope (100x), stained with 0.5% mercurochrome, and examined under a light microscope (40x) for the oocyst count. […] Two criteria were used to evaluate drug activity: the total number of infected mosquitoes and the mean number of oocysts, based on the examination of 20 mosquitoes in each group.

[8] = Partition coefficient (log P) by HPLC method, OECD guideline
Method: A Waters Alliance HPLC system equipped with a UV-Vis 2487 detector was employed. The chromatographic analysis was performed on a Symmetry C18 HPLC column (4.6 mm×250 mm, 5 µm particle size) and the mobile phase was methanol:water (70∶30), with detection at 256 nm. A flow rate of 1.0 mL/min was used and 50-µL samples were injected into the chromatographic system. The run time was approximately 15 min. The analytical curve was constructed on the basis of the retention time of the standards (purchased from Sigma Aldrich, NJ, USA) butanone, acetanilide, phenol, phenacetin, benzene, toluene, chlorobenzene and thymol, dissolved in mobile phase at a concentration of 50 µg/mL. The substances were analyzed in triplicate and the average retention time for each standard was used. The capacity factor (k) was obtained by the equation [20]: k = (tR - t0) /t0, where tR is the retention time of the test substance and t0 the dead-time. The log k values were correlated with the partition coefficients of the standards for construction of the analytical curve. […] The coefficient of determination (r^2) was also calculated to evaluate the linearity of the analytical curve.

In vitro hemolysis assay = settings: human
Method: as §4

in vitro = settings: human
Method: as §4

[9] = cited from earlier work
[10] = MTT, 24 h, expressed as PQ equivalents
[11] = single oral dose 1.0 mg/kg (Phe-Ala-PQ: 0.19 mg/kg PQ)
[12] = single oral dose 5.0 mg/kg (0.94 mg/kg PQ)
[13] = single oral dose 10 mg/kg (1.9 mg/kg PQ)

COc1cc(NC(C)CCCNC(=O)[C@H](C)NC(=O)[C@@H](N)Cc2ccccc2)c2ncccc2c1 (stereo partly drawn) [Phe-Ala-PQ, phenylalanine-alanine-primaquine]
ALP (male Wistar rats [1]): 93.52 U/L
ALT (male Wistar rats [1]): 185.7 ^a, ^b U/L
AST (male Wistar rats [1]): 290.6^a, ^b U/L
Creatinine (male Wistar rats [1]): 0.529 mg/dL
Direct bilirubin (male Wistar rats [1]): 0.147 mg/dL
GGT (male Wistar rats [1]): 13.03^a, ^b U/L
Total bilirubin (male Wistar rats [1]): 0.711 mg/dL
Urea (male Wistar rats [1]): 5.734^a, ^b mg/dL
Urea (male Wistar rats [1]; listed as prodrug): 5.734 mg/dL
Hemolysis % ([2]; 125 µg/mL (Phe-Ala-PQ: 23.7 µg/mL PQ equivalents)): 0%
Hemolysis % ([2]; 500 µg/mL (Phe-Ala-PQ: 95 µg/mL PQ equivalents)): 51%
Hemolysis ([2]; concentrations equal to or less than 250 µg/mL (47.5 µg/mL PQ equivalents)): did not cause hemolysis
Liver glycogen: positive cells (<50%), periportal region (male Wistar rats [3]): increase
Liver glycogen: PAS-positive cells (>50%), overall analysis of the liver (male Wistar rats [3]; compared to control group): more PAS-positive cells (>50%)
Liver cells with fatty microvesicular changes (male Wistar rats [3]; compared to the PQ group, listed as prodrug): fewer cells with fatty microvesicular changes; also recorded: lower percentage of cells with fatty microvesicular changes
Liver glycogen: PAS-positive cells (total), periportal region (male Wistar rats [3]): more PAS-positive cells (total) compared to the control group
Histopathological analysis of the kidney (male Wistar rats [3]): normal structures, with no alteration in the glomeruli and renal tubules
MDL50 HepG2, PQ equivalents [4, 10]: 175 µg/mL
MDL50 (Mean±SD) HepG2 ([4]; MTT): 920 µg/mL and 920 ± 1 µg/mL
Toxicity to HepG2 cells compared to PQ ([4]; ratio of MDL50 values): five times less toxic
oral bioavailability [5]: approximately 50%
MDL50 BGM, PQ equivalents [6, 10]: 110 µg/mL
MDL50 (Mean±SD) BGM ([6]; MTT): 580 µg/mL and 580 ± 86 µg/mL
Toxicity to BGM cells compared to PQ ([6]; ratio of MDL50 values): about two times less toxic
Eosinophils Absolute (No. cells) (male Wistar rats [7]): 40 (0–152) No. cells
Eosinophils Relative (%) (male Wistar rats [7]): 0.40 (0.00–1.51) %
Hematocrit (male Wistar rats [7]): 47 (45–48) %
Hemoglobin (male Wistar rats [7]): 11.76 (11.38–12.14)
Leukocytes (male Wistar rats [7]): 8700 ^a ^, ^b (5623–11777) /mm^3
Lymphocytes Absolute (No. cells) (male Wistar rats [7]): 7691 ^a ^, ^b (5947–9976) No. cells
Lymphocytes Relative (%) (male Wistar rats [7]): 83.0 ^a (75.8–90.2) %
Methemoglobin (male Wistar rats [7]): 3.65 (3.45–3.85) %
Monocytes Absolute (No. cells) (male Wistar rats [7]): 812 ^b (0–1728) No. cells
Monocytes Relative (%) (male Wistar rats [7]): 7.60 ^b (0.06–15.1) %
Neutrophils Band Absolute (No. cells) (male Wistar rats [7]): 0 No. cells
Neutrophils Band Relative (%) (male Wistar rats [7]): 0%
Neutrophils Segmented Absolute (No. cells) (male Wistar rats [7]): 895 (163–1626) No. cells
Neutrophils Segmented Relative (%) (male Wistar rats [7]): 9.00 ^a (2.55–15.4) %
Mean oocyts ±SD/ in times 4 h (P. gallinaceum; [11]): 26±36
Mean oocyts ±SD/ in times 4 h (P. gallinaceum; [12]): 6±6
Mean oocyts ±SD/ in times 4 h (P. gallinaceum; [13]): 0±0
Reduction in oocyst number, % (P. gallinaceum; [11]): 0%
Sporogony inhibition, % (P. gallinaceum; [11]): 0%
Reduction in oocyst number, % (P. gallinaceum; [12]): 70%
Reduction in oocyst number, % (P. gallinaceum; [13]): 100%
Sporogony inhibition, % (P. gallinaceum; [13]): 100%
log P ([8]; HPLC method): 0.94

COc1cc(NC(C)CCCN)c2ncccc2c1 (stereo not shown) [PQ, Primaquine]
ALP (male Wistar rats [1]): 125.6 U/L
ALT (male Wistar rats [1]): 91.81 ^a U/L
AST (male Wistar rats [1]): 64.99 ^a U/L
Creatinine (male Wistar rats [1]): 0.986 mg/dL and 0.986 ^a mg/dL
Direct bilirubin (male Wistar rats [1]): 0.228 mg/dL
GGT (male Wistar rats [1]): 22.88 ^a U/L
Total bilirubin (male Wistar rats [1]): 0.797 mg/dL and 0.797 ^a mg/dL
Urea (male Wistar rats [1]): 18.51 mg/dL
hemolysis at 125 µg/mL (In vitro hemolysis assay): 0%
hemolysis at 250 µg/mL (In vitro hemolysis assay): 50%
hemolysis at 500 µg/mL (In vitro hemolysis assay): 87.8%
hemolysis at 31 µg/mL (in vitro): 0%
hemolysis at 62 µg/mL (in vitro): 0%
hemolysis at 1000 µg/mL (in vitro): 100%
Liver glycogen: positive cells (<50%), periportal region (male Wistar rats [3]): decrease
Liver glycogen: PAS-positive cells (total), periportal region (male Wistar rats [3]): more PAS-positive cells (total) compared to the control group
Histopathological analysis of the kidney (male Wistar rats [3]): normal structures, with no alteration in the glomeruli and renal tubules
MDL50 (Mean±SD) HepG2 ([4]; MTT): 180 µg/mL and 180 ± 24 µg/mL
MDL50 (Mean±SD) BGM ([6]; MTT): 263 µg/mL and 263 ± 4 µg/mL
Eosinophils Absolute (No. cells) (male Wistar rats [7]): 97 (43–151) No. cells
Eosinophils Relative (%) (male Wistar rats [7]): 2.10 (0.77–3.42) %
Hematocrit (male Wistar rats [7]): 46 (44–48) %
Leukocytes (male Wistar rats [7]): 4840 (3973–5706) /mm^3
Lymphocytes Absolute (No. cells) (male Wistar rats [7]): 4123 (3200–5046) No. cells
Lymphocytes Relative (%) (male Wistar rats [7]): 83.9 ^a (78.9–88.9) %
Methemoglobin (male Wistar rats [7]): 3.89 (3.39–4.40) %
Monocytes Absolute (No. cells) (male Wistar rats [7]): 96 ^a (52–140) No. cells
Monocytes Relative (%) (male Wistar rats [7]): 2.30 ^a (0.86–3.73) %
Neutrophils Band Absolute (No. cells) (male Wistar rats [7]): 6 (0–19) No. cells
Neutrophils Band Relative (%) (male Wistar rats [7]): 0.11 (0.00–0.36) %
Neutrophils Segmented Absolute (No. cells) (male Wistar rats [7]): 516 ^a (403–629) No. cells
Neutrophils Segmented Relative (%) (male Wistar rats [7]): 11.6 ^a (8.15–15.0) %
Mean oocyts ±SD/ in times 4 h (P. gallinaceum; [11]): 2.1
Mean oocyts ±SD/ in times 4 h (P. gallinaceum; single oral dose 1.0 mg/kg (Phe-Ala-PQ: 0.19 mg/kg PQ), listed as PQ diphosphate): 2.1±4.3
Reduction in oocyst number, % (P. gallinaceum; [11]): 96%
Sporogony inhibition, % (P. gallinaceum; [11]): 50%
chromatographic logP [8]: 2.1
plasma half-life [9]: ca. 6 h

Reference: article PMC4136845, “Evaluation of Antimalarial Activity and Toxicity of a New Primaquine Prodrug” (PLoS ONE, 2014)
